Source: ChEMBL document CHEMBL3301361, “Experimental in vitro DMPK and physicochemical data on a set of publicly disclosed compounds”
≈ marks a conversion by molar mass, not a printed value.

Columns and labels:
[1] = in vitro; conditions: hepatocytes
[2] = physchem; conditions: octan-1-ol/water
[3] = in vitro; conditions: SD, HW or BN, rat, plasma
[4] = in vitro; conditions: human, plasma
[5] = in vitro; conditions: human
[6] = physchem; conditions: pH 7.4 buffer

Compound | hepatocyte CLint [1] | logD ([2]; pH 7.4, LogD7.4) | other results
C[C@@](C(=O)O[C@H]1C[N+]2(CCOCCc3ccccc3)CCC1CC2)(c1ccccc1)N1CCCCC1 | 77 µL/min/1e6 cells |  | 
Cc1cc(Oc2cc(S(=O)(=O)N3CCC[C@H](n4cc(C)c(=O)[nH]c4=O)C3)ccc2O)ccc1Cl | 20.4 µL/min/1e6 cells | 2.4 | 
Nc1ccc2c(-c3ccncc3)c(-c3ccc(F)cc3)[nH]c2n1 | 117 µL/min/1e6 cells |  | 
Cc1ccccc1-c1c(C(=O)O)n(CCCOc2cccc3ccccc23)c2ccccc12 | 123 µL/min/1e6 cells | 3.89 | 
Cn1sc(=O)c2cc(S(=O)(=O)NC3CC3)ccc21 | > 150 µL/min/1e6 cells | 1.3 | 
O=C(Nc1cccc(-c2nnn[nH]2)c1)c1cc(F)cc2nc[nH]c12 | 67.6 µL/min/1e6 cells | 0.29 | 
C[C@@](C(=O)O[C@H]1C[N+]2(CCCc3cncnc3)CCC1CC2)(c1ccccc1)N1CCCCC1 | 66 µL/min/1e6 cells |  | 
Cc1c(C(=O)NC2C3CC4CC(C3)CC2C4)cnn1-c1ccc(C(=O)O)cc1 (centres undefined) | < 3 µL/min/1e6 cells |  | 
CO[C@H]1C[C@@H]2CC[C@@H](C)[C@@](O)(O2)C(=O)C(=O)N2CCCC[C@H]2C(=O)O[C@H]([C@H](C)C[C@@H]2CC[C@@H](OC(=O)C(C)(CO)CO)[C@H](OC)C2)CC(=O)[C@H](C)/C=C(\C)[C@@H](O)[C@@H](OC)C(=O)[C@H](C)C[C@H](C)/C=C/C=C/C=C/1C [TEMSIROLIMUS] | > 150 µL/min/1e6 cells |  | 
CC(C)=CCC[N+]12CCC(CC1)[C@@H](OC(=O)[C@](C)(c1ccccc1)N1CCCCC1)C2 | 101 µL/min/1e6 cells |  | 
CC1=C(C(=O)O)N2C(=O)[C@@H](NC(=O)[C@H](N)c3ccc(O)cc3)[C@H]2SC1 [CEFADROXIL] | < 3 µL/min/1e6 cells | -0.86 | 
CN(C)CC[C@H](CSc1ccccc1)Nc1ccc(S(=O)(=O)NC(=O)c2ccc(N3CCN(Cc4ccccc4-c4ccc(Cl)cc4)CC3)cc2)cc1[N+](=O)[O-] [ABT 737] | 9.55 µL/min/1e6 cells |  | 
COC1=CC(c2cc3ccccc3[nH]2)=N/C1=C\c1[nH]c(C)cc1C [OBATOCLAX] | 22.4 µL/min/1e6 cells | 2.55 | 
O=C(O)c1cc2cc(OCc3ccccc3)ccc2[nH]1 | 25.7 µL/min/1e6 cells | 0.4 | 
CCC(C)(CC)C[C@H](c1ccc(C(=O)O)c(Oc2cccc(Br)c2)c1)N1CCC[C@H](n2cc(C)c(=O)[nH]c2=O)C1 | 69.2 µL/min/1e6 cells | 1.97 | 
COc1cc2cc(-c3ccc(O)cc3O)nc(C)c2cc1OC | > 150 µL/min/1e6 cells |  | 
CCC(=C(c1ccc(O)cc1)c1ccc(OCCN(C)C)cc1)c1ccccc1 | 56.2 µL/min/1e6 cells |  | 
CN[C@@H](C)C(=O)N[C@H](C(=O)N[C@H]1C[C@@H]2CC[C@H]1N(CCc1ccccc1)C2)C1CCCCC1 | 19.9 µL/min/1e6 cells | 1.64 | 
Cc1ccc(-c2nc3ccccc3[nH]2)cc1NC(=O)c1ccc(OCc2ccccn2)cc1 | 10.2 µL/min/1e6 cells | 3.24 | 
C[C@@H]1Cc2c([nH]c3cc(Cl)c(F)cc23)[C@]2(N1)C(=O)Nc1ccc(Cl)cc12 | 7.24 µL/min/1e6 cells |  | 
Cc1c(Sc2ccc(Cl)cc2)c2c(-c3cnccn3)cccc2n1CC(=O)O |  | 0.03 | fraction unbound at 5 h [3]: 0.024; fraction unbound at 5 h ([4]; PPB): 0.0124; microsomal CLint ([5]; microsomes): 8 µL/min/mg
O=C(NCCc1ccccc1)c1cc(-n2ncc(=O)[nH]c2=O)ccc1Cl |  | 0.74 | fraction unbound at 5 h [3]: 0.0391; fraction unbound at 5 h ([4]; PPB): 0.0251; microsomal CLint ([5]; liver microsomes): < 3 µL/min/mg
COc1cc2nccc(Oc3ccc(NC(=O)C4(C(=O)Nc5ccc(F)cc5)CC4)cc3)c2cc1OC [CABOZANTINIB] | 3.16 µL/min/1e6 cells |  | 
O=C(Nc1cccc(-c2nnn[nH]2)c1)c1cc(O)cc(C(F)(F)F)c1 | 29.5 µL/min/1e6 cells | 0.8 | 

Compound | hepatocyte CLint [1] | logD ([2]; pH 7.4, LogD7.4) | other results
CC(C)OC(=O)C(C)(C)Oc1ccc(C(=O)c2ccc(Cl)cc2)cc1 [FENOFIBRATE] | 54 µL/min/1e6 cells |  | 
CO[C@H]1/C=C/O[C@@]2(C)Oc3c(C)c(O)c4c(O)c(cc(O)c4c3C2=O)NC(=O)/C(C)=C\C=C\[C@H](C)[C@H](O)[C@@H](C)[C@@H](O)[C@@H](C)[C@H](OC(C)=O)[C@@H]1C [RIFAMYCIN] | < 3 µL/min/1e6 cells | 1.19 | 
CSc1c(C(=O)NC2C3CC4CC(C3)CC2C4)cnn1-c1ccc(C(=O)O)cc1 (centres undefined) | 12.3 µL/min/1e6 cells |  | 
CCNC(=O)c1ccc(C)c(-n2cnc3ccc(N4CCN(C)CC4)cc3c2=O)c1 | < 3 µL/min/1e6 cells | 1.47 | 
C[C@H]1Cc2c([nH]c3cc(Cl)c(F)cc23)[C@@]2(N1)C(=O)Nc1ccc(Cl)cc12 [CIPARGAMIN] | 8.71 µL/min/1e6 cells |  | 
Cc1cc(NC(=O)Nc2cccc3ccccc23)no1 | 95.5 µL/min/1e6 cells |  | 
O=C(O)CN1C(=O)C(=O)c2ccccc21 | 26.9 µL/min/1e6 cells |  | 
COc1ccc(C)c(Nc2ncc3ccn(-c4ccccn4)c3n2)c1 | 83.2 µL/min/1e6 cells |  | 
CN1CCN(c2ccc(-c3cnc4cccc(-c5cc(F)c(CN6CCOCC6)c(F)c5)c4n3)cc2)CC1 | 14.4 µL/min/1e6 cells |  | 
Cc1cccc2c(O)nc(-c3ccc(C(F)(F)F)cc3)nc12 | 45.7 µL/min/1e6 cells |  | 
C[C@@](CCc1ccc(-c2ccc(Cl)cc2)cc1)(C(=O)NO)S(C)(=O)=O | < 3 µL/min/1e6 cells | 2.4 | 
Oc1nc2c(O)ccc(CCNCCCSCCOCCc3cccc4ccccc34)c2s1 |  |  | fraction unbound at 5 h [3]: 0.0122; microsomal CLint ([5]; liver microsomes): 36 µL/min/mg
CC[C@@]1(O)C(=O)OCc2c1cc1n(c2=O)Cc2cc3c(CN(C)C)c(O)ccc3nc2-1 [TOPOTECAN] | 3.24 µL/min/1e6 cells | 0.31 | 
C[C@@](C(=O)O[C@H]1C[N+]2(CC(=O)Nc3ccncn3)CCC1CC2)(c1ccccc1)N1CCCCC1 | 39 µL/min/1e6 cells |  | 
C[C@@](C(=O)O[C@H]1C[N+]2(CCOc3ccc(Cl)cc3)CCC1CC2)(c1ccccc1)N1CCCCC1 | 60 µL/min/1e6 cells |  | 
Cc1ccc(S(=O)(=O)Nc2c(C(=O)N[C@@H](C)C(C)(C)C)c(C)nn2C2CCC2)cc1 |  | 1.57 | fraction unbound at 5 h [3]: 0.0209; fraction unbound at 5 h ([4]; PPB): 0.0183; microsomal CLint ([5]; microsomes): 11 µL/min/mg
NCCc1ccc(O)c2nc(O)sc12 | > 150 µL/min/1e6 cells |  | logD ([2]; pH 7.4): 0.33
Cc1ccccc1C(OCCN(C)C)c1ccccc1 (centres undefined) [ORPHENADRINE] | > 150 µL/min/1e6 cells | 1.47 | 
COc1ccc2ncc(F)c(CCN3CCC(NCc4ccc5c(n4)NC(=O)CO5)CC3)c2n1 | 39.8 µL/min/1e6 cells | 1.78 | 
CN(C)CCC=C1c2ccccc2C=Cc2ccccc21 [CYCLOBENZAPRINE] |  | 2.83 | fraction unbound at 5 h [3]: 0.117; fraction unbound at 5 h ([4]; PPB): 0.0784; microsomal CLint ([5]; microsomes): 4.07 µL/min/mg
CC(C)C[C@H](N)C(=O)NC[C@H](O)C[C@@H](N)CC(=O)NN(C)CC(=O)O | < 3 µL/min/1e6 cells |  | 
N[C@@H](C(=O)N[C@@H]1C(=O)N2C(C(=O)O)=C(Cl)CC[C@H]12)c1ccccc1 [LORACARBEF ANHYDROUS] | < 3 µL/min/1e6 cells |  | 
CCC(C)(C)C[C@H](c1ccc(C(=O)O)c(Oc2cccc(Cl)c2)c1)N1CCC[C@H](n2cc(C)c(=O)[nH]c2=O)C1 | 117 µL/min/1e6 cells | 1.37 | 
O=C([C@@H]1CCCN1)N1CCN(c2nc(NCc3ccc(Cl)cc3Cl)c3cccnc3n2)CC1 | 6 µL/min/1e6 cells | 2.41 | 

Compound | hepatocyte CLint [1] | logD ([2]; pH 7.4, LogD7.4) | other results
O=C(O)c1cc2ccccc2[nH]1 [INDOLE-2-CARBOXYLIC ACID] | 11 µL/min/1e6 cells |  | 
O=c1c2ccccc2[nH]n1Cc1c[nH]c2ccccc12 | 4.37 µL/min/1e6 cells |  | 
COc1ccc2nc(C)cc(-n3cc(CN4CCN(C(C)=O)CC4)nn3)c2c1 | 5.13 µL/min/1e6 cells | 1.3 | 
CS(=O)(=O)N1CC[C@H](N(Cc2ccccc2Cl)c2ccc(C#N)c(Cl)c2)C1 | 72.4 µL/min/1e6 cells |  | logD ([2]; pH 7.4): 4
Cc1nn(C)c(C)c1-c1cccc2c(CCCOc3cccc4ccccc34)c(C(=O)O)[nH]c12 | 61.7 µL/min/1e6 cells |  | 
Cc1ccc(C[C@@H](C(=O)O)N2CCC(CN3CCC(Oc4ccc(Cl)c(Cl)c4)CC3)CC2)cc1 | < 3 µL/min/1e6 cells |  | 
Nc1cc(C(=O)Nc2cccc(-c3nnn[nH]3)c2)cc(C(F)(F)F)c1 | 23.4 µL/min/1e6 cells | 0.2 | 
COc1ccc(N(C(=O)c2ccccc2)C(C(=O)NC[C@@H](C)O)c2ccccc2F)c(OC)c1 (some centres undefined) | > 150 µL/min/1e6 cells |  | 
O=C(Nc1cccc(-c2nnn[nH]2)c1)c1cccc2[nH]cnc12 | 44.7 µL/min/1e6 cells | -0.05 | 
COc1ccc2ncc(=O)n(CCN3CCC(NCc4cc5c(cn4)OCCO5)CC3)c2c1 | > 150 µL/min/1e6 cells | 0.93 | 
CCCCC[C@H](c1ccc(C(=O)O)c(Oc2cccc(Br)c2)c1)N1CCC[C@H](n2cc(C)c(=O)[nH]c2=O)C1 | 30.2 µL/min/1e6 cells | 1.69 | 
Cc1cn([C@H]2CCCN([C@H](CC3CCCCC3)c3ccc(C(=O)O)c(Oc4cccc(Cl)c4)c3)C2)c(=O)[nH]c1=O | 42.7 µL/min/1e6 cells |  | 
CC1(C)CCC(c2ccc(Cl)cc2)=C(CN2CCN(c3ccc(C(=O)NS(=O)(=O)c4ccc(N[C@H](CCN5CCOCC5)CSc5ccccc5)c(S(=O)(=O)C(F)(F)F)c4)cc3)CC2)C1 [NAVITOCLAX] | 9.77 µL/min/1e6 cells | 0.64 | 
CC(C(=O)O)c1cccc(Oc2ccccc2)c1 (centres undefined) [FENOPROFEN] |  | 0.71 | fraction unbound at 5 h [3]: 0.0146; microsomal CLint ([5]; liver microsomes): 10.2 µL/min/mg
Cc1nc(C(=O)N2CCOC3(CCN(Cc4ccc(Cl)cc4)CC3)C2)cs1 | 47 µL/min/1e6 cells | 2.17 | 
c1ccc(Nc2nc3c(s2)CCCc2[nH]ncc2-3)nc1 | 36.3 µL/min/1e6 cells |  | 
C[C@@](C(=O)O[C@H]1C[N+]2(CCCc3cc4ccccc4s3)CCC1CC2)(c1ccccc1)N1CCCCC1 | 65 µL/min/1e6 cells |  | 
CCC1(CCC(C)C)C(=O)NC(=O)NC1=O [AMOBARBITAL] | 11.8 µL/min/1e6 cells |  | 
O=c1n(CCCN2CCN(c3cccc(Cl)c3)CC2)nc2ccccn12 [TRAZODONE] |  | 2.67 | solubility thermodynamic [6]: 891 µM (≈ 331 µg/mL); fraction unbound at 5 h [3]: 0.124; fraction unbound at 5 h [4]: 0.03
O=C(c1ccc(O)cc1O)N1CCCC1 | > 150 µL/min/1e6 cells |  | 
CN(C)C(=O)[C@H](O)[C@H](Cc1ccccc1)NC(=O)c1cc2cc(Cl)ccc2[nH]1 |  | 3.6 | solubility thermodynamic [6]: 22.9 µM (≈ 9.16 µg/mL); fraction unbound at 5 h [3]: 0.0268; fraction unbound at 5 h ([4]; PPB): 0.0219
O=c1cc(-c2ccc(Br)cc2)oc2ccccc12 | < 3 µL/min/1e6 cells |  | 
C[C@@](C(=O)O[C@H]1C[N+]2(CCCOc3ccc(F)cc3)CCC1CC2)(c1ccccc1)N1CCCCC1 | 66 µL/min/1e6 cells |  | 
O=C1NC(=O)C(c2ccccc2)(c2ccccc2)N1 [PHENYTOIN] |  | 2.41 | solubility thermodynamic [6]: 79.4 µM (≈ 20 µg/mL); fraction unbound at 5 h [3]: 0.179; fraction unbound at 5 h ([4]; PPB): 0.129
